From ChEMBL document CHEMBL5620341, “CSF1R inhibitors are emerging immunotherapeutic drugs for cancer treatment” (Eur J Med Chem, 2023)
Converted amounts (≈) assume the structure as drawn. One block for each compound: values may come before it.

Experiments:
[1] = target: T1, Macrophage colony-stimulating factor 1 receptor (Homo sapiens, UniProt P07333); assay: Inhibition of CSF1R (unknown origin) preincubated for 60 mins measured after 1 hr by ADP-Glo assay
[2] = Inhibition of human CSF1R-autoinhibited by discoverX kinome scan assay
[3] = target: Receptor-type tyrosine-protein kinase FLT3 (Homo sapiens, UniProt P36888, ITD); assay: Inhibition of FLT3-ITD mutant phosphorylation in human HEK-293T cells incubated for 2 hrs; type: cell-based
[4] = target: Mast/stem cell growth factor receptor Kit (Homo sapiens, UniProt P10721); assay: Inhibition of c-KIT (unknown origin) using TK as substrate incubated for 50 mins in presence of ATP by HTRF method
[5] = target: T2, Macrophage colony-stimulating factor 1 receptor (Mus musculus, UniProt P09581); assay: Inhibition of CSF1R autophosphorylation in mouse RAW264.7 cells measured after 4 hrs by Western blot analysis; type: cell-based
T2 sequence (P09581 whole entry): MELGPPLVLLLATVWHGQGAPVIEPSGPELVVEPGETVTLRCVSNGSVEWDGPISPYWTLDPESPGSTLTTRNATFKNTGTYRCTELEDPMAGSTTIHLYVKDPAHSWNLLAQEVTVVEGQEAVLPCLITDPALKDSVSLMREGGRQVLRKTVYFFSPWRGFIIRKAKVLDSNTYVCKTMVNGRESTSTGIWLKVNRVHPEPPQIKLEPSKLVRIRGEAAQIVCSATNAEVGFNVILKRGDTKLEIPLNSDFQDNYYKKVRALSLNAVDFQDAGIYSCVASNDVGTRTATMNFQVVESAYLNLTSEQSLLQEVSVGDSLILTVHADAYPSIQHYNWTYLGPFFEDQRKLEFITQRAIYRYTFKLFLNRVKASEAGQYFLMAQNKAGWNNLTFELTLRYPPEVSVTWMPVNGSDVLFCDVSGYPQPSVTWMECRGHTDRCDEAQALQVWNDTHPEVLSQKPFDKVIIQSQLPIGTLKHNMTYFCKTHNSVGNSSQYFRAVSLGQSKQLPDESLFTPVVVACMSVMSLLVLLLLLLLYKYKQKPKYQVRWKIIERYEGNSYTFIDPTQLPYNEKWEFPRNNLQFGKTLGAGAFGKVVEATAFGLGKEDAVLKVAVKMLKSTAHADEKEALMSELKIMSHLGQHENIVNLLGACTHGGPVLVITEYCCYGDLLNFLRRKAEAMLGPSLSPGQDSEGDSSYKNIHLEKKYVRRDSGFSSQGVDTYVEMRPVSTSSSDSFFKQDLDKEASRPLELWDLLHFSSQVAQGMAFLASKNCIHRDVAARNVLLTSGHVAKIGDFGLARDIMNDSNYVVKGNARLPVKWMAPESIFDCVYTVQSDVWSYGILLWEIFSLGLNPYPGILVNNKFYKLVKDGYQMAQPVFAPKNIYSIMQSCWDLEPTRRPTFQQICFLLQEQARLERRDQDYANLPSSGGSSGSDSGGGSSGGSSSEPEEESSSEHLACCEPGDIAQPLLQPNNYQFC

[6] = system: ID8; assay: Cytotoxicity against mouse ID8 cells; type: functional
[7] = Oral bioavailability in CD-1 mouse at 3 mg/kg; type: ADME, organism-based; conditions: in vivo
[8] = target: Receptor-type tyrosine-protein kinase FLT3 (Homo sapiens, UniProt P36888); assay: Binding affinity to human FLT3 assessed as dissociation constant
[9] = target: T1, Macrophage colony-stimulating factor 1 receptor; assay: Binding affinity to CSF1R (unknown origin) assessed as dissociation constant
[10] = target: T2, Macrophage colony-stimulating factor 1 receptor; assay: Inhibition of CSF1R in mouse BMDM cells; type: cell-based
[11] = Half life in Sprague-Dawley rat at 10 mg/kg, po or 1 mg/kg, iv by LC-MS/MS analysis; type: ADME, organism-based; conditions: in vivo
[12] = Oral bioavailability in Sprague-Dawley rat at 10 mg/kg by LC-MS/MS analysis; type: ADME, organism-based; conditions: in vivo
[13] = Unbound fraction in mouse plasma; type: ADME, cell-free
[14] = Solubility of compound in PBS at pH 7.4; type: physicochemical
[15] = system: NFS-60; assay: Growth inhibition of mouse NFS-60 cells incubated for 72 hrs by Cell titer-glo assay; type: functional
[16] = Cytotoxicity against mouse RAW264.7 cells assessed as reduction in cell viability incubated for 48 hrs by MTT assay; type: toxicity, cell-based
[17] = system: NFS-60; assay: Cytotoxicity against mouse NFS-60 cells assessed as cell growth inhibition incubated for 72 hrs by Cell titer-glo assay; conditions: NFS-60, 72 h
[18] = Metabolic stability in mouse liver microsomes assessed as half life; type: ADME, Microsome
[19] = system: CT26; assay: Antiproliferative activity against mouse CT26 cells assessed as inhibition of cell growth measured after 6 days by MTT assay; type: functional, cell-based; conditions: CT26, 144 h
[20] = system: EMT6; assay: Antitumor activity against mouse EMT6 cells allografted in BALB/c mouse assessed as reduction in tumor growth inhibition administered via oral gavage relative to control; type: functional
[21] = system: HUVEC; assay: Antiproliferative activity against VEGF stimulated HUVEC cells assessed as reduction in cell viability incubated for 72 hrs by MTT assay; conditions: Homo sapiens
[22] = system: HUVEC; assay: Antiproliferative activity against FGF stimulated HUVEC cells assessed as reduction in cell viability incubated for 72 hrs by MTT assay; conditions: Homo sapiens
[23] = target: T3, Vascular endothelial growth factor receptor 2 (Homo sapiens, UniProt P35968); assay: Inhibition of VEGFR2 (unknown origin)
[24] = target: T2, Macrophage colony-stimulating factor 1 receptor; assay: Inhibition of CSF1R in mouse RAW264.7 cells assessed as reduction in AKT phosphorylation measured after 4 hrs by Western blot analysis; type: cell-based
[25] = target: T4, Tyrosine-protein kinase Mer (Homo sapiens, UniProt Q12866); assay: Inhibition of human MERTK by discoverX kinome scan assay
T4 sequence (Q12866 whole entry): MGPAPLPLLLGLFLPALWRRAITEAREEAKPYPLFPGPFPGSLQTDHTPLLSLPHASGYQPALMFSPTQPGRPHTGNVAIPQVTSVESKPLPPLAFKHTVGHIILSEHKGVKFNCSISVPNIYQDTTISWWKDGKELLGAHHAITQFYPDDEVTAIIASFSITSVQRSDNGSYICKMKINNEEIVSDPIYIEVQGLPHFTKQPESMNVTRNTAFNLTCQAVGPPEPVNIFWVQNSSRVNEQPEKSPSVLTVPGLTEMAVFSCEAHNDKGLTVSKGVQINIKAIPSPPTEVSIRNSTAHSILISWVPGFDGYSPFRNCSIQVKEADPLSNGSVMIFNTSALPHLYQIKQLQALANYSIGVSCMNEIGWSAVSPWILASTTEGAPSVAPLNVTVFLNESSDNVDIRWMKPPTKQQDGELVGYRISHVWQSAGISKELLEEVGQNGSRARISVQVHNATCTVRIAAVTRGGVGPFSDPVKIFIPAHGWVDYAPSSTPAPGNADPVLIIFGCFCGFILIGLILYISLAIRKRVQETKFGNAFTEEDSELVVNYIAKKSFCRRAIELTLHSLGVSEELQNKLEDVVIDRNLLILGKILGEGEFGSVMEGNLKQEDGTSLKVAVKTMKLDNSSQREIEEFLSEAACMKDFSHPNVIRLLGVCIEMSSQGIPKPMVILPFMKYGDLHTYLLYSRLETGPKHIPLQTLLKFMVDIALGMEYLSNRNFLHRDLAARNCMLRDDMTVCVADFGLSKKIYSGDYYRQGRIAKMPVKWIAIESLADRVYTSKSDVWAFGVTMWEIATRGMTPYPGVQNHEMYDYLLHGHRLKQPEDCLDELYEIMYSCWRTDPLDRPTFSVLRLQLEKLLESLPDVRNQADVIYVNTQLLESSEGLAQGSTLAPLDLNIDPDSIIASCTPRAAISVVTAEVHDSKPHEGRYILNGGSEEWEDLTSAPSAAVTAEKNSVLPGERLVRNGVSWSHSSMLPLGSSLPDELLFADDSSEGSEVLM

[26] = target: Vascular endothelial growth factor receptor 1 (Homo sapiens, UniProt P17948); assay: Inhibition of VEGFR1 (unknown origin)
[27] = target: RAF proto-oncogene serine/threonine-protein kinase (Homo sapiens, UniProt P04049); assay: Inhibition of c-RAF (unknown origin)
[28] = target: Tyrosine-protein kinase Lck (Homo sapiens, UniProt P06239); assay: Inhibition of LCK (unknown origin)
[29] = target: T3, Vascular endothelial growth factor receptor 2; assay: Inhibition of KDR (unknown origin) using peptide as substrate incubated for 90 mins in presence of ATP by HTRF method
[30] = Inhibition of FGFR (unknown origin); set-up: species or system Homo sapiens
[31] = system: MC-38; assay: Antitumor activity against mouse MC38 cells allografted in C57BL/6 mouse assessed as reduction in tumor volume at 5 to 10 mg/kg administered via oral gavage for 21 days relative to control; type: functional; set-up: scale not given: the % may be the effect or the level left; conditions: dose 5-10 mg/kg, time 21 day
[32] = system: NFS-60; assay: Growth inhibition of mouse NFS-60 cells; type: functional
[33] = target: T3, Vascular endothelial growth factor receptor 2; assay: Inhibition of human VEGFR2 in presence of ATP by mobility shift assay
[34] = target: Platelet-derived growth factor receptor beta (Homo sapiens, UniProt P09619); assay: Inhibition of PDGFRbeta (unknown origin)

T3 sequence (P35968 whole entry): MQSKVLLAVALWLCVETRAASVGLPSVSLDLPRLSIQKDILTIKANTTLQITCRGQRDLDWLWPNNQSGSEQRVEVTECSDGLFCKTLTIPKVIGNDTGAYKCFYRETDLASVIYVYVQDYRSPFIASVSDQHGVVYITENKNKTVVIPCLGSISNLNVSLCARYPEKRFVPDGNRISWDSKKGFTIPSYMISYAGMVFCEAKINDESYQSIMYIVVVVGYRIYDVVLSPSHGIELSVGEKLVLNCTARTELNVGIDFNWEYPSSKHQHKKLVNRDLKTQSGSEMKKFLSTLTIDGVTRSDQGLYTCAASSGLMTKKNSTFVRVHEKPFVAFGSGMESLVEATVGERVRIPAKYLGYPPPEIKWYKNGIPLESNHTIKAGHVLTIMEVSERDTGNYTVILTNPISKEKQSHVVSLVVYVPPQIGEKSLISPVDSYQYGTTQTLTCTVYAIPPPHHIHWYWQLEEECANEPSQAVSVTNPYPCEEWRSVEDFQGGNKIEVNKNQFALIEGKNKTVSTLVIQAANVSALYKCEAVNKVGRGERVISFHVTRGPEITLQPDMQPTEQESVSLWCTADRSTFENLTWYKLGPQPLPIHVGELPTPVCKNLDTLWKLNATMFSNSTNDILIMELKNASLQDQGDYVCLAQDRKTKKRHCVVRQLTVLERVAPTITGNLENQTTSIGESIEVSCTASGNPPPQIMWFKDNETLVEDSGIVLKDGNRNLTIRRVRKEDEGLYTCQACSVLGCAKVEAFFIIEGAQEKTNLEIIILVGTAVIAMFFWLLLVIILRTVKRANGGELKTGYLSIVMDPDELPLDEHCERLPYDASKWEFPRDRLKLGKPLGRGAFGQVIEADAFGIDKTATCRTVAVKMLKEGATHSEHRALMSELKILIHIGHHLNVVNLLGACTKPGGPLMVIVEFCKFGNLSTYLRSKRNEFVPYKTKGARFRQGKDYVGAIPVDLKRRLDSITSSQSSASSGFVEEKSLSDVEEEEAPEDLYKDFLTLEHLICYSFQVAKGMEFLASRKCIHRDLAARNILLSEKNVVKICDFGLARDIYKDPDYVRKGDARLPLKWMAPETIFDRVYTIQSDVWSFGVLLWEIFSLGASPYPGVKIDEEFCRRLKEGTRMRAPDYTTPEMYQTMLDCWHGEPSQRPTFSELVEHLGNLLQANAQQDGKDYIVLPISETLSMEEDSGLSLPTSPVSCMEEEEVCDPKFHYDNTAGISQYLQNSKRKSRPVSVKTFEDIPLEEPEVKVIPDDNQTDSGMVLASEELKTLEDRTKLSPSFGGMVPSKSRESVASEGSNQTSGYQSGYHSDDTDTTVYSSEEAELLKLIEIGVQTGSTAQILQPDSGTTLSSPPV
T1 sequence (P07333 whole entry): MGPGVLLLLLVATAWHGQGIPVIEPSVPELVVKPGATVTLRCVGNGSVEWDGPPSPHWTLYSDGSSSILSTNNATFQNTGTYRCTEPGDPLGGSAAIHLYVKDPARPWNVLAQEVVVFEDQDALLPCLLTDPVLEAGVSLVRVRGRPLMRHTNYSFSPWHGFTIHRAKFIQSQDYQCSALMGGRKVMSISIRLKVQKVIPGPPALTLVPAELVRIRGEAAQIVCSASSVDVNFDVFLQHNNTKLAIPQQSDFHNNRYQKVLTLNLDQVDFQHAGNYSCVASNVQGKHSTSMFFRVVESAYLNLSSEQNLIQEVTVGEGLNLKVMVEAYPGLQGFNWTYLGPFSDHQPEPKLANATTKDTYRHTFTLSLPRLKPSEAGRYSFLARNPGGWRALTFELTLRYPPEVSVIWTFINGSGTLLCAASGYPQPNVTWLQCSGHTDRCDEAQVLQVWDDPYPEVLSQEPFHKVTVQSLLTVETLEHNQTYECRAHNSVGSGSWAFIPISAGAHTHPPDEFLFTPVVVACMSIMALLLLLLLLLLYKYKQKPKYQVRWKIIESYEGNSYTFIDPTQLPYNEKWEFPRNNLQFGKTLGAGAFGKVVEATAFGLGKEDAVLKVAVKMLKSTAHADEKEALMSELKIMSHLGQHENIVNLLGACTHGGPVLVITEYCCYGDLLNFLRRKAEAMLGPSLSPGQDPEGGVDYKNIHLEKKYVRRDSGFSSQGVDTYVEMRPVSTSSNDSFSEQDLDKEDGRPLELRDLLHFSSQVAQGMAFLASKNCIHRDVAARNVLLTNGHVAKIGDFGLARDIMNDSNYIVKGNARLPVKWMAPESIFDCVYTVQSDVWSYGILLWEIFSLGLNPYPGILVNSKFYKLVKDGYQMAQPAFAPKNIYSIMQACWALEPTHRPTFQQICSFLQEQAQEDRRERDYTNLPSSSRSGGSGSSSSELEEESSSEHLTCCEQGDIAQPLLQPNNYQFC
Tyrosine-protein kinase Lck, sequence (P06239 whole entry): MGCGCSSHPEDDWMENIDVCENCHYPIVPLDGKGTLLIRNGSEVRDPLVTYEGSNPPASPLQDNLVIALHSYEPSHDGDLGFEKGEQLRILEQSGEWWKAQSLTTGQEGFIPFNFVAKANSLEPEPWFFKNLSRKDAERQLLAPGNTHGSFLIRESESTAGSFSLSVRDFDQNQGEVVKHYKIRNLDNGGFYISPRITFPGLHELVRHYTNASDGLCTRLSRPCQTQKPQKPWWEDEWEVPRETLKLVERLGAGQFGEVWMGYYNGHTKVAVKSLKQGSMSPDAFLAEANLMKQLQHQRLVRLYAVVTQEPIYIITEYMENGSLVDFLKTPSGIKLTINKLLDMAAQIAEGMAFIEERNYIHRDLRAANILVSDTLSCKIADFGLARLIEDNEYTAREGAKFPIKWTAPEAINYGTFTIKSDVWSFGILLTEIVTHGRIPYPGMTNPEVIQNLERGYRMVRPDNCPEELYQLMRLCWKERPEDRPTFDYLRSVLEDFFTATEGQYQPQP
Vascular endothelial growth factor receptor 1, sequence (P17948 whole entry): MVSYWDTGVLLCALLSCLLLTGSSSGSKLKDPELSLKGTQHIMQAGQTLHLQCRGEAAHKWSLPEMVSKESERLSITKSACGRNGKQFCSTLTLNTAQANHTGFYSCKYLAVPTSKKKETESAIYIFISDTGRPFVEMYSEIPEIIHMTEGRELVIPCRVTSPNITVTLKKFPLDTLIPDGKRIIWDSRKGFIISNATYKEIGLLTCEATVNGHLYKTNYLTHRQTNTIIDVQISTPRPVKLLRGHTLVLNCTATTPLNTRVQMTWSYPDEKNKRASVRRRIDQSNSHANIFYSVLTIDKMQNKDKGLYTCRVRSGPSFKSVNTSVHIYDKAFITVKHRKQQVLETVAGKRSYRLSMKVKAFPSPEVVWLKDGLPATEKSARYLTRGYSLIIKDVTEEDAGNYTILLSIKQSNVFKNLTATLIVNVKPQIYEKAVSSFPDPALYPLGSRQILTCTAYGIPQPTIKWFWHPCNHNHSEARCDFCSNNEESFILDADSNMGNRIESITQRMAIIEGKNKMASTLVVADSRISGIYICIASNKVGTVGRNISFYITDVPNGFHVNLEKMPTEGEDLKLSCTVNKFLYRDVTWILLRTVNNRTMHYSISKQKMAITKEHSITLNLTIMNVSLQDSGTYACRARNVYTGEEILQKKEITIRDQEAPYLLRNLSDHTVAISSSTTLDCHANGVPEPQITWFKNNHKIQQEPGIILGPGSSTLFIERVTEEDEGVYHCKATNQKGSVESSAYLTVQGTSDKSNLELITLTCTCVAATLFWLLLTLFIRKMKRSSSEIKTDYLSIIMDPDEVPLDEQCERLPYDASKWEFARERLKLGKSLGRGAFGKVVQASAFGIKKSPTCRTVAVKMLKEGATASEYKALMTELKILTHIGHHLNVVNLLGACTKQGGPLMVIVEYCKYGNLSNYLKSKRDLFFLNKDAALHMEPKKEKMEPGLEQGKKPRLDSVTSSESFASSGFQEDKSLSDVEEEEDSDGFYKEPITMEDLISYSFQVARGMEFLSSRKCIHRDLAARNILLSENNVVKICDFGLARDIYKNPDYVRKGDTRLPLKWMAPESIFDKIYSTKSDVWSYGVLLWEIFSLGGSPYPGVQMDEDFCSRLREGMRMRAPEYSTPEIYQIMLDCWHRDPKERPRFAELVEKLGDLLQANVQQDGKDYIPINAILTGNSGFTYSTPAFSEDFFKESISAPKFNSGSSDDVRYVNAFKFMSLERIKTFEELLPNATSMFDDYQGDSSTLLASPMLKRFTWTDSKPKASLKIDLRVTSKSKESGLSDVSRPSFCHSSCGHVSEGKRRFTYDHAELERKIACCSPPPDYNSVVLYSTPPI
RAF proto-oncogene serine/threonine-protein kinase, sequence (P04049 whole entry): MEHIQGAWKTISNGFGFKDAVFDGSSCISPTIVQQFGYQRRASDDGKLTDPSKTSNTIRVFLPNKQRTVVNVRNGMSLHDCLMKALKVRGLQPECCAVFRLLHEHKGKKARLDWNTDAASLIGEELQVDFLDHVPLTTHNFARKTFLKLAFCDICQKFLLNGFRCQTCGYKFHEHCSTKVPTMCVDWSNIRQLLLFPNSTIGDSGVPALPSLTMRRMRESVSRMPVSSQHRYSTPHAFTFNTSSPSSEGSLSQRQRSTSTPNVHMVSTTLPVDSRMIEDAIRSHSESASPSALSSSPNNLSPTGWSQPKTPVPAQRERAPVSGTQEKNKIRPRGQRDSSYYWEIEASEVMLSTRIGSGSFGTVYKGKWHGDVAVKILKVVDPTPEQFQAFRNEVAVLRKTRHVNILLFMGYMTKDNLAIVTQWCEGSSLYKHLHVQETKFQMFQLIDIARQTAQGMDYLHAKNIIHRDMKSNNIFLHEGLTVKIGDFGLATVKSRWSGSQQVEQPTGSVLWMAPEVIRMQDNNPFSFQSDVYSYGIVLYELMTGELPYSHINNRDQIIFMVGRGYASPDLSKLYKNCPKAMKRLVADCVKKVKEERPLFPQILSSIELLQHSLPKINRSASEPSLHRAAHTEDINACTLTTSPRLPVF

SMILES: CC1(C)CC=C(c2nc(C3CC(C)(C)OC(C)(C)C3)ccc2NC(=O)c2nc(C#N)c[nH]2)CC1 [EDICOTINIB]
IC50 [3]: 190 nM | IC50 [4]: 20 nM

SMILES: Cc1cccc(Cn2nc(C3CC3)c3c(NC(=O)c4cnc5cc(OCCN6CCN(C)CC6)ccn45)cccc32)n1 [ARRY-382]
ED50 [6]: 3 mg/kg

SMILES: CN1CCN(c2ccc(C(=O)Nc3n[nH]c4cc(OCCOCc5ccc(C(F)(F)F)cc5)ccc34)cc2)CC1
Kd [8]: < 1 nM | Kd [9]: < 1 nM

SMILES: CCN(CC)CCNC(=O)c1c(C)[nH]c(/C=C2\C(=O)Nc3ccc(F)cc32)c1C [SUNITINIB]
IC50 [10]: 4.1 nM

SMILES: COc1ccc(N2C(=O)N(c3c(C)cccc3Cl)Cc3cnc(Nc4ccc(C5CCN(C)CC5)cc4OC)nc32)nc1
fraction unbound [13]: 0.06 | solubility [14]: 428 µM (≈ 257 µg/mL)

SMILES: Cc1ccc(F)c(NC(=O)Nc2ccc(-c3cccc4[nH]nc(N)c34)cc2)c1 [LINIFANIB]
GI50 [15]: 4400 nM | IC50 at 48 h [16]: 8600 nM | IC50 [17]: 30 nM

SMILES: Cc1cc2cc(Oc3ccnc(Nc4cccc(CS(=O)(=O)NCCN(C)C)c4)n3)ccc2[nH]1 [SURUFATINIB]
IC50 [21]: < 50 nM | IC50 [22]: < 50 nM | IC50 [23]: 1 nM | IC50 [24]: 79 nM | IC50 [25]: 4 nM | IC50 [26]: 1 nM

SMILES: Cc1cc(NC(=O)c2cccc3cc(-c4cccc5[nH]nc(N)c45)ccc23)ccc1F
IC50 [10]: 93 nM

SMILES: O=C(Nc1ccc(OC(F)(F)F)cc1)c1sccc1NCc1ccnc2ccccc12 [OSI-930]
IC50 [27]: 15 nM | IC50 [28]: 15 nM | IC50 [29]: 15 nM

SMILES: COc1cc(OC)c(Cl)c(-c2ccc3c(NC(=O)c4ccc(N5CCNC(C)(C)C5)cc4)n[nH]c3n2)c1Cl
IC50 [30]: 17.3 nM

SMILES: Cc1nc(-c2cnc(NC(C)C)n(C)c2=O)ccc1Oc1ccnc(-c2cnn(C)c2)c1 [VIMSELTINIB]
Activity [31]: 67%

SMILES: Cc1cccc(Cn2nc(C)c3c(NC(=O)c4csc5c(N)ncnc45)cccc32)n1
GI50 [32]: 80 nM

Further lines, with some results ahead:

IC50 [1]: 23.4 nM | IC50 [2]: 23.4 nM
SMILES: Cn1cc(-c2cc(Cc3ccc(NC(=O)NC(=O)C(C)(C)C)nc3)ccn2)cn1

IC50 [5]: 26 nM
SMILES: COc1ncc(F)cc1CNc1ccc(Cc2c[nH]c3ncc(C)cc23)c(F)n1 [PLX-5622]

bioavailability [7]: 100%
SMILES: Cn1cc(-c2cc(Oc3ccc(NC(=O)N4CCC5(CCC(F)(F)CC5)C4=O)nc3)ccn2)cn1

bioavailability [7]: 100%
SMILES: Cn1cc(-c2cc(Oc3ccc(NC(=O)N4CCC5(CCC5)C4=O)nc3)ccn2)cn1

half-life [11]: 2.53 h | bioavailability [12]: 106%
SMILES: CNc1ccc(-c2cnc(Nc3cnc(C4CC4)nc3)cc2C)c2c1C(=O)NC2

half-life [18]: > 2 h
SMILES: COc1ccc(N(C(=O)Nc2c(C)cccc2C)c2cc(Nc3ccc(N4CCN(C)CC4)cc3)ncn2)c(OC)c1

IC50 [19]: 1 nM
SMILES: CNC(=O)c1cc(Oc2ccc3nc(N[C@@H]4CCCC[C@H]4O)sc3c2)ccn1 [SOTULETINIB]

Kd [9]: < 100 nM
SMILES: CCn1cc(OCC(F)(F)F)c(C(=O)Nc2ccc(Oc3ccnc4cc(OC)c(OC)cc34)cn2)n1
TGI [20]: >50%

IC50 [33]: < 10 nM | IC50 [34]: < 10 nM
SMILES: CNC(=O)c1cccc2cc(Oc3ccnc(NC(=O)c4ccc(N5C[C@@H](C)N[C@@H](C)C5)cc4)c3)ccc12
